Results: the OligoGym collection
“And” between values parts separate entries of the source, which are not always exact repeats. Equal values may be shown once. After the bases stand the sugars from the 5' end (letter, count) and the backbone: PS all phosphorothioate, else s phosphorothioate and o phosphodiester by linkage. Methylation of C is not given here. e = 2'-O-(2-methoxyethyl) (MOE); k = constrained ethyl (cEt); d = 2'-deoxy (DNA)

Target: IRF4
Settings: ASO

Row | Sequence | target mRNA inhibition (SK-MEL-28, 4 µM) | target mRNA inhibition (MM.1R, 1 µM) | further results
1 | AGCAAGTGTCTTCCAC (sugars k3 d10 k3, PS) | 75% and 72% | – | –
2 | GTCTTAAGGGTTCAAG (sugars k3 d10 k3, PS) | 49% | – | –
3 | AGTTCATGTAAAGTCT (sugars kkdddddddddekeke, PS) | – | 51% and 49% | –
4 | GGAAATTCAAGCTTTC (sugars k3 d10 k3, PS) | 64% | – | –
5 | AAGTGGAGGTCTTTGG (sugars k3 d10 k3, PS) | 66% | – | –
6 | AGACAAATCTTCTGCC (sugars k3 d10 k3, PS) | -4% | – | –
7 | TTCCATAGAGCCAGAG (sugars k3 d10 k3, PS) | 37% | – | –
8 | CGCTCAGGACTCAGGG (sugars k3 d10 k3, PS) | 55% | – | –
9 | GACACTTTTAGAGAGG (sugars kkkdddddddddkeke, PS) | – | 24% | –
10 | CGGACGCACGGAGAGG (sugars k3 d10 k3, PS) | 28% | – | –
11 | TAGAGAACATTACGAG (sugars k3 d10 k3, PS) | 60% | – | –
12 | AGCCATAGCAAATGGC (sugars k3 d10 k3, PS) | 5% | – | –
13 | GCGGAGGACCTCGCCT (sugars k3 d10 k3, PS) | 8% | – | –
14 | GAAACGAGTTGACACA (sugars k3 d10 k3, PS) | – | 0% | –
15 | AAGCGCACCGCAGGCG (sugars k3 d10 k3, PS) | 4% | – | –
16 | CATTTACTGTTACCGA (sugars k3 d10 k3, PS) | 79% | – | target mRNA inhibition (MM.1R, 0.074 µM): -14%; target mRNA inhibition (MM.1R, 0.222 µM): 0%; target mRNA inhibition (MM.1R, 0.666 µM): -9%; target mRNA inhibition (MM.1R, 2 µM): 10%
17 | ATGTGTATTACTCTTA (sugars kkddddddddddkeke, PS) | – | 47% and 48% | –
18 | TCTGGATTGCTGATGT (sugars k3 d10 k3, PS) | – | 36% | –
19 | TTTATGCGAAGAATTT (sugars k3 d10 k3, PS) | 33% | – | –
20 | ACAGTGACTTGCATCC (sugars kkdddddddddkekek, PS) | – | 32% | –
21 | CAGTGACTTGCATCCA (sugars kkdddddddddekeke, PS) | – | 34% | –
22 | GAGCAAATTGAGACCA (sugars k3 d10 k3, PS) | 55% | – | –
23 | ACCTCAGTTTGTGAAG (sugars kkdddddddddekeke, PS) | – | 13% | –
24 | AATCTGGATGAGCTTA (sugars k3 d10 k3, PS) | – | 4% | –
25 | ACGCAGCCTCTAAGAA (sugars k3 d10 k3, PS) | 25% | – | –

Row | Sequence | target mRNA inhibition (SK-MEL-28, 4 µM) | target mRNA inhibition (MM.1R, 1 µM) | further results
26 | ACAATAAAATGTCACG (sugars k3 d10 k3, PS) | 29% | – | –
27 | TTCAGCCACGAGGCAC (sugars k3 d10 k3, PS) | 5% | – | –
28 | ATCTACTCCAGACCCC (sugars k3 d10 k3, PS) | 27% | – | –
29 | GATACAGCAGGCACTT (sugars k3 d10 k3, PS) | 63% | – | –
30 | ATCGAGCGGTGAAACT (sugars k3 d10 k3, PS) | 29% | – | –
31 | CTTTCCCATGGTTACT (sugars k3 d10 k3, PS) | – | 8% | –
32 | TTCGAGAGAAATATAC (sugars k3 d10 k3, PS) | – | 22% | –
33 | CAAATTCCCGGAGGAA (sugars k3 d10 k3, PS) | 5% | – | –
34 | TATAATTGGCACGAGG (sugars k3 d10 k3, PS) | 41% | – | –
35 | GTCTAGCTGGGTTTTC (sugars k3 d10 k3, PS) | 63% | – | –
36 | CCAGGTTAAACAGGAA (sugars k3 d10 k3, PS) | 6% | – | –
37 | CATCATGTAGTTGTGA (sugars k3 d10 k3, PS) | 41% | – | –
38 | TTTCATATTTGGAGCC (sugars k3 d10 k3, PS) | 75% | 25% and 45% | target mRNA inhibition (MM.1R, 0.0625 µM): -3% and 21%; target mRNA inhibition (MM.1R, 0.25 µM): 10% and 18%; target mRNA inhibition (MM.1R, 4 µM): 45% and 60%
39 | TAATAATGCTTGCAAG (sugars k3 d10 k3, PS) | 12% | – | –
40 | CGCCCTGGACTCGGAG (sugars k3 d10 k3, PS) | 36% | – | –
41 | TAGTATGAGAAACGGC (sugars k3 d9 k3 e1, PS) | – | 48% | –
42 | GGCACATCAATGTTTT (sugars kkdddddddddekeke, PS) | – | 22% and 26% | –
43 | AACTCTCCTGTTTTCG (sugars k3 d10 k3, PS) | 42% | – | –
44 | TGGATTGATGTGATAG (sugars k3 d10 k3, PS) | – | 48% | –
45 | TAGTAGACCACAGTGA (sugars k3 d10 k3, PS) | 9% | – | –
46 | AGCATTTTATCATCCG (sugars k3 d10 k3, PS) | 81% | – | –
47 | GAACACACCAGGTTAA (sugars k3 d10 k3, PS) | -2% | – | –
48 | CATGGTTACTAATTCC (sugars k3 d10 k3, PS) | – | 25% | –
49 | ACATAACTCAGGCAAG (sugars k3 d10 k3, PS) | 1% | – | –
50 | AATAAGCTCATCTGCC (sugars k3 d10 k3, PS) | 36% | – | –

Row | Sequence | target mRNA inhibition (SK-MEL-28, 4 µM) | target mRNA inhibition (MM.1R, 1 µM) | further results
51 | CTCAGCAAGTGTCTTC (sugars k3 d10 k3, PS) | 45% | – | –
52 | ACTTGCATCCATGTCA (sugars k3 d10 k3, PS) | – | 35% | –
53 | GTGATAGCTGAGCTGA (sugars kddddddddddkekek, PS) | – | 29% | –
54 | AATGAGTCGGTCACTT (sugars k3 d10 k3, PS) | 46% | – | –
55 | AGCTTGATAAAGGCTG (sugars k2 d9 e3 k2, PS) | – | 3% | –
56 | ATAACATGAGAGTGTT (sugars k3 d10 k3, PS) | – | -17% | –
57 | AGCCAAGAGGTGCGAG (sugars k3 d10 k3, PS) | 38% | – | –
58 | TGATGTGATAGCTGAG (sugars kkdddddddddkdkdk, PS) | – | 14% | –
59 | CACGAAGATTCAAAAG (sugars k3 d10 k3, PS) | 10% | – | –
60 | ATCACGAGGTTGCCGA (sugars k3 d10 k3, PS) | 60% | – | –
61 | GAGCAGAACGAGGTAA (sugars k3 d10 k3, PS) | 55% | – | –
62 | GCACATCAATGTTTTA (sugars kddddddddddkekek, PS) | – | 13% and 0% | –
63 | CCGCAGCCCAAAGGCT (sugars k3 d10 k3, PS) | – | 4% | –
64 | CTAAATTCTAGTTTGC (sugars k3 d10 k3, PS) | 21% | – | –
65 | CCAAATTCCCGGAGGA (sugars k3 d10 k3, PS) | – | -25% | –
66 | CGAAAAGACTGGAGTG (sugars k3 d10 k3, PS) | – | 26% | –
67 | GCTCAGAATGAAGTTA (sugars k3 d10 k3, PS) | 48% | – | –
68 | GGCTGAACTGTGTAAT (sugars k3 d10 k3, PS) | 72% | – | –
69 | TTACATCCTAGAACAC (sugars k3 d10 k3, PS) | 3% | – | –
70 | CTTAAGCTAAACTCCT (sugars k3 d10 k3, PS) | 27% | – | –
71 | GGGTCCTCCGCCCGCT (sugars k3 d10 k3, PS) | 28% | – | –
72 | TCCACTTCTGAATTCC (sugars k3 d10 k3, PS) | 19% | – | –
73 | GTGATGTCAGGTTTTC (sugars kdddddddddkekeke, PS) | – | 30% | –
74 | TATCCATTAGAAAAGC (sugars k3 d10 k3, PS) | 63% | – | –
75 | ACACTTTTAGAGAGGA (sugars e1 k2 d9 k2 e2, PS) | – | 29% | –

Row | Sequence | target mRNA inhibition (SK-MEL-28, 4 µM) | target mRNA inhibition (MM.1R, 1 µM) | further results
76 | GAGCCTGGGACTCAGG (sugars k4 d8 k4, PS) | 19% | – | –
77 | AGGCACATGAGAAATC (sugars k3 d10 k3, PS) | 23% | – | –
78 | GTGATGTCAGGTTTTC (sugars kkkddddddddkekek, PS) | – | 57% | target mRNA inhibition (MM.1R, 0.074 µM): 14%; target mRNA inhibition (MM.1R, 0.222 µM): 35%; target mRNA inhibition (MM.1R, 0.666 µM): 54%; target mRNA inhibition (MM.1R, 2 µM): 77%
79 | AACACTTGGAGAAGTC (sugars k3 d10 k3, PS) | 43% | – | –
80 | TATAACCGGTAGAGTG (sugars k3 d10 k3, PS) | 21% | – | –
81 | GTCTCTACCTACTCCA (sugars k3 d10 k3, PS) | 41% | – | –
82 | CTTTACACAGTTCTAA (sugars k3 d10 k3, PS) | -13% | – | –
83 | AGCAAGTGGAGGTCTT (sugars k3 d10 k3, PS) | 63% | – | –
84 | GAAATGGAGCATCCGC (sugars k3 d10 k3, PS) | 32% | – | –
85 | GGCAATGGAGTCTCGC (sugars k3 d10 k3, PS) | 50% | – | –
86 | TGAGAGACGAAAACAG (sugars k3 d10 k3, PS) | -9% | – | –
87 | AAACAGCCCACTGAGT (sugars k3 d10 k3, PS) | 11% | – | –
88 | GCTCAACCTGGAAGGA (sugars k3 d10 k3, PS) | 25% | – | –
89 | GATATAAATAGCTGTT (sugars k4 d8 k4, PS) | 61% | – | target mRNA inhibition (MM.1R, 0.074 µM): 5% and 3%; target mRNA inhibition (MM.1R, 0.222 µM): 6% and 15%; target mRNA inhibition (MM.1R, 0.666 µM): 12%; target mRNA inhibition (MM.1R, 2 µM): 24% and 19%; target mRNA inhibition (SK-MEL-28, 0.185 µM): 2% and 6% and 10%; target mRNA inhibition (SK-MEL-28, 5 µM): 57% and 76%
90 | ACTTTTAGAGAGGAGA (sugars kkddddddddddkeke, PS) | – | 23% | –
91 | GCAGTGATGTCAGGTT (sugars k3 d9 k3 e1, PS) | – | 62% | target mRNA inhibition (MM.1R, 0.074 µM): 15%; target mRNA inhibition (MM.1R, 0.222 µM): 33%; target mRNA inhibition (MM.1R, 0.666 µM): 51%; target mRNA inhibition (MM.1R, 2 µM): 73%
92 | CCGCTGAGAGCCGAGG (sugars k3 d10 k3, PS) | -4% | – | –
93 | TCCAACCCTAGATAAC (sugars k3 d10 k3, PS) | – | -5% | –
94 | GTGATAGCTGAGCTGA (sugars kkdddddddddkdkdk, PS) | – | 34% | –
95 | GAGTTGTACAGGACAG (sugars k3 d10 k3, PS) | – | 51% and 52% | –
96 | TCTGTATAGTTCTCAA (sugars k3 d10 k3, PS) | – | 42% and 40% | target mRNA inhibition (MM.1R, 0.0625 µM): -2% and 0%; target mRNA inhibition (MM.1R, 0.25 µM): 16% and 26%; target mRNA inhibition (MM.1R, 4 µM): 69% and 71%
97 | TTTGAGACTTAACCCA (sugars k3 d10 k3, PS) | – | 31% | –
98 | AACGACTCCACAGAGC (sugars k3 d10 k3, PS) | – | 4% | –
99 | CTGCTGCCCAATACAT (sugars k3 d10 k3, PS) | 47% | – | –
100 | AACGACAAGTGGCGCA (sugars k3 d10 k3, PS) | – | 12% | –
